Data: ChEMBL document CHEMBL5154936, “Scaffold Hopping Strategy to Identify Prostanoid EP4 Receptor Antagonists for Cancer Immunotherapy” (J Med Chem, 2022)

Legend:
[1] = molecular target: Prostaglandin E2 receptor EP4 subtype (Homo sapiens, UniProt P35408); assay: Antagonist activity at human EP4 receptor transfected in CHO/Galpha16 cells preincubated for 15 mins followed by PGE2 addition by calcium flux assay; type: functional, cell-based
CT26 = assay: Antitumor activity against mouse CT26 cells allografted in BALB/c mouse assessed as tumor growth inhibition at 75 mg/kg, po administered once a day for 14 days; type: functional; details: CT26, 336 h, time 14 day, read-out: TGI
[2] = Metabolic stability in mouse liver microsomes assessed as half life; type: ADME, Microsome
[3] = Metabolic stability in human liver microsomes assessed as parent compound remaining at 10 uM measured after 60 mins; type: ADME, Microsome; details: read-out: Stability
CYP2B6 = molecular target: T1, CYP2B6 (Homo sapiens, UniProt P20813); assay: Inhibition of CYP2B6 (unknown origin) at 20 uM; type: ADME
T1 sequence (P20813 whole entry): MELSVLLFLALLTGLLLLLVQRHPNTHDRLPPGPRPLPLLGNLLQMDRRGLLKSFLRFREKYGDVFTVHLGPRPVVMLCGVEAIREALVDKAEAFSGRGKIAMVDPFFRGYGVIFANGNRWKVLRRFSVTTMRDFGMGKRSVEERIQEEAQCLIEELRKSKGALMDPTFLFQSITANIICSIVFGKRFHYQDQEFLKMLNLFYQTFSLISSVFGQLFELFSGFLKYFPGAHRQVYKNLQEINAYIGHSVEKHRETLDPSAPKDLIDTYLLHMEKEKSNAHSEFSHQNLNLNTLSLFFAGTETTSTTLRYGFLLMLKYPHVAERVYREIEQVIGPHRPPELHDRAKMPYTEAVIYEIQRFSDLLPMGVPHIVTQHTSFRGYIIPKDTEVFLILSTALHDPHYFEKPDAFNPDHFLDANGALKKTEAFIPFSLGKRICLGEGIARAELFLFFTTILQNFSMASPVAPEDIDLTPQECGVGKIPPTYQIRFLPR

CYP2C9 = CYP2C9 (Homo sapiens, UniProt P11712); assay: Inhibition of CYP2C9 (unknown origin) at 20 uM; type: ADME
CYP2C9, sequence (P11712 whole entry): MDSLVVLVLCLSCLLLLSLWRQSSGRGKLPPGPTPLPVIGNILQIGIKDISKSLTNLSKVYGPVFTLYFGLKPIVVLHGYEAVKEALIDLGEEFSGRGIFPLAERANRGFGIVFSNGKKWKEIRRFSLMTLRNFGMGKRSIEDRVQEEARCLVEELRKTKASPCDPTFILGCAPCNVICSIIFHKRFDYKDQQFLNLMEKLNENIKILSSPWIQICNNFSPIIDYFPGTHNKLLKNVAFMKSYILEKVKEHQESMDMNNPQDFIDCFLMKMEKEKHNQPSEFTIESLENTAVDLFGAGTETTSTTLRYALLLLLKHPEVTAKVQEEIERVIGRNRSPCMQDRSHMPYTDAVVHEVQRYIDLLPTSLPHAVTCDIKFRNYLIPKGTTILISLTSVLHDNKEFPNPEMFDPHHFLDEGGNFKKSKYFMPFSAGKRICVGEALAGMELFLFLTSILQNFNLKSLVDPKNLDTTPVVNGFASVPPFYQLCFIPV

CYP2E1 = CYP2E1 (Homo sapiens, UniProt P05181); assay: Inhibition of CYP2E1 (unknown origin) at 20 uM; type: ADME
CYP2E1, sequence (P05181 whole entry): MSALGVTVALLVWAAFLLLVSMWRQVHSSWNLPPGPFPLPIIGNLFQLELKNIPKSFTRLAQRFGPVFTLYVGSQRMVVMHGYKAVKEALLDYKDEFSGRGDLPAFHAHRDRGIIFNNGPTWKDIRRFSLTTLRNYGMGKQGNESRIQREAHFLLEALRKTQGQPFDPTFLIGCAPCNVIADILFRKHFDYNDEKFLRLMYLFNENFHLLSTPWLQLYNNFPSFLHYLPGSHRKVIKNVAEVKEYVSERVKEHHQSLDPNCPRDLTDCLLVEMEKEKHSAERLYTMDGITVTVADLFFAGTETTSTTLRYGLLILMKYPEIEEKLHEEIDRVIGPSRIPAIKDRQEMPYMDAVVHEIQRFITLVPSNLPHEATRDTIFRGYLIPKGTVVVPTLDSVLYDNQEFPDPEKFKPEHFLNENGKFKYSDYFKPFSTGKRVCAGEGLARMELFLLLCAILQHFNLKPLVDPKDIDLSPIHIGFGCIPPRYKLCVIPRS

[4] = Metabolic stability in mouse liver microsomes assessed as intrinsic clearance; type: ADME, Microsome; details: read-out: CLH
[5] = Cytotoxicity against HEK293 cells assessed as reduction in cell viability incubated for 72 hrs by CCK-8 assay; type: toxicity, cell-based; details: human
[6] = molecular target: Prostaglandin E2 receptor EP4 subtype (Mus musculus, UniProt P32240); assay: Antagonist activity at mouse EP4 receptor transfected in CHO/Galpha16 cells preincubated for 15 mins followed by PGE2 addition by calcium flux assay; type: functional, cell-based
Prostaglandin E2 receptor EP4 subtype (Mus musculus, UniProt P32240), sequence (P32240 whole entry): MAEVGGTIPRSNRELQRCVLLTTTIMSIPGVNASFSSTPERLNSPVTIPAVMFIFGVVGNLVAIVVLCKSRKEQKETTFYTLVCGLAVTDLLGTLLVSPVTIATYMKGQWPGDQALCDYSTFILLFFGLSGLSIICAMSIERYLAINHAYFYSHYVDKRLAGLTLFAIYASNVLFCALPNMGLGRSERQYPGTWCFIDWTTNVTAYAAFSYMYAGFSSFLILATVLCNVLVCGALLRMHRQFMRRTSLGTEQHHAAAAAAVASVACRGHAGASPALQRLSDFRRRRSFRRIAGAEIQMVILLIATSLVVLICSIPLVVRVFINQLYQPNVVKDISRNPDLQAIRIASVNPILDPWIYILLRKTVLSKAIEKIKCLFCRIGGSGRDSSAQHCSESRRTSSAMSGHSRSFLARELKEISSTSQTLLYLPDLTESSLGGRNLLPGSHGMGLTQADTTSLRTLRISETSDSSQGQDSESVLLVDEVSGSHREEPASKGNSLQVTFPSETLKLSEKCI

CYP1A2 = molecular target: T2, CYP1A2 (Homo sapiens, UniProt P05177); assay: Inhibition of CYP1A2 (unknown origin) at 20 uM; type: ADME
T2 sequence (P05177 whole entry): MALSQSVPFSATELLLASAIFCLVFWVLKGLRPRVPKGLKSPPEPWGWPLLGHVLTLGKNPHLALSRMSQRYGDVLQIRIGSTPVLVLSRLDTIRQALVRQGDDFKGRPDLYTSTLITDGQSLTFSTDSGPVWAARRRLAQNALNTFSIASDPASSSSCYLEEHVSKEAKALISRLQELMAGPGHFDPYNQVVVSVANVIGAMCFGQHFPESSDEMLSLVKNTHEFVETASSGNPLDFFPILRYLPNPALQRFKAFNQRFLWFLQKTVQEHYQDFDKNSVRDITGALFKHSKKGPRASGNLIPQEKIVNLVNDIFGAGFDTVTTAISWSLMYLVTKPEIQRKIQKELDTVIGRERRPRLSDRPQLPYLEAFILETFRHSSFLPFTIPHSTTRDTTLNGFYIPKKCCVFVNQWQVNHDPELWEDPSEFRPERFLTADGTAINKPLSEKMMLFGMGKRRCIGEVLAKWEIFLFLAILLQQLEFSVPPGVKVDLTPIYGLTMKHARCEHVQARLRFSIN

[7] = Metabolic stability in human liver microsomes assessed as intrinsic clearance; type: ADME, Microsome; details: read-out: CLH
[8] = Metabolic stability in mouse liver microsomes assessed as parent compound remaining at 10 uM measured after 60 mins; type: ADME, Microsome; details: read-out: Stability
CYP2D6 = CYP2D6 (Homo sapiens, UniProt P10635); assay: Inhibition of CYP2D6 (unknown origin) at 20 uM; type: ADME
CYP2D6, sequence (P10635 whole entry): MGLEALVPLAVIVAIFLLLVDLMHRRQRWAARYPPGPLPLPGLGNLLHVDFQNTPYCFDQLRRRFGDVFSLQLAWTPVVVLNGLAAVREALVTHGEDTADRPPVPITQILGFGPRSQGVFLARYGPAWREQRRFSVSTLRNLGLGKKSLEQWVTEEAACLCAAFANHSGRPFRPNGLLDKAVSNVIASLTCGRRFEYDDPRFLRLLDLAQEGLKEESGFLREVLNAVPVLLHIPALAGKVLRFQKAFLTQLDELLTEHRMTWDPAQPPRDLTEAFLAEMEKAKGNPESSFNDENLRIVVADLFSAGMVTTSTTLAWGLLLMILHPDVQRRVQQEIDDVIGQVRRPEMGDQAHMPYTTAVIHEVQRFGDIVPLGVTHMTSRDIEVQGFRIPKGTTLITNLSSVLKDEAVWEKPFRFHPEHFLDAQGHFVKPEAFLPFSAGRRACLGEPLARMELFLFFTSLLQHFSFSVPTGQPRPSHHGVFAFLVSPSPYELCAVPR

[9] = Metabolic stability in human liver microsomes assessed as half life; type: ADME, Microsome

Prostaglandin E2 receptor EP4 subtype (Homo sapiens, UniProt P35408), sequence (P35408 whole entry): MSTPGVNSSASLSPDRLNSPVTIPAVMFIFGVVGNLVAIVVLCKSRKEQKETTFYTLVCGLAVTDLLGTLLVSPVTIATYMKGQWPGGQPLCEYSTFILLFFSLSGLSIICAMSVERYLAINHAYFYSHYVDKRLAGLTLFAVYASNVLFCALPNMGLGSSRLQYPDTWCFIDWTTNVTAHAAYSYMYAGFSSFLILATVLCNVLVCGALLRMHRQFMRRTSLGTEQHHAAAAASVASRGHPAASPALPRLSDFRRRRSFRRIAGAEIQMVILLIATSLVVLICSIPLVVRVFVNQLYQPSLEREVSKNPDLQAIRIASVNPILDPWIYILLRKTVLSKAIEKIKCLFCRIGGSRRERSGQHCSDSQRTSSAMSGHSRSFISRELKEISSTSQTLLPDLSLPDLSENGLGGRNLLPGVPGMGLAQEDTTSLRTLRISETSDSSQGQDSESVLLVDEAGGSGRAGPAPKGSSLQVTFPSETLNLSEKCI

CC(C)c1ccc(Cc2sc3c(c2C(=O)N[C@@H](C)c2ccc(C(=O)O)cc2)CCOC3)cc1
IC50 [1]: 2.7 nM

COC(=O)c1ccc([C@H](C)NC(=O)c2c(Cc3ccc(F)cc3)sc3c2CCOC3)cc1
IC50 [1]: > 1000 nM

C[C@H](NC(=O)c1c(/N=C/c2cccc(C(F)(F)F)c2)sc2c1CCOC2)c1ccc(C(=O)O)cc1
IC50 [1]: > 1000 nM

CCC1CCc2c(sc(CCc3ccc(F)cc3)c2C(=O)N[C@@H](C)c2ccc(C(=O)O)cc2)C1 (some centres not stated)
IC50 [1]: 648 nM

O=C(NCC1CCC(C(=O)O)CC1)c1c(Cc2ccc(F)cc2)sc2c1CCOC2 (configuration not stated)
IC50 [1]: 30.3 nM

C[C@H](NC(=O)c1c(Cc2cccc(F)c2)sc2c1CCOC2)c1ccc(C(=O)O)cc1
IC50 [1]: 5.1 nM

COc1ccc2cc(C#Cc3sc4c(c3C(=O)N[C@@H](C)c3ccc(C(=O)O)cc3)CCOC4)ccc2c1
IC50 [1]: 27.2 nM

C[C@H](NC(=O)c1c(CCc2ccc(F)cc2)sc2c1CCN(C(=O)OC(C)(C)C)C2)c1ccc(C(=O)O)cc1
IC50 [1]: 315 nM

COc1cccc(Cc2sc3c(c2C(=O)N[C@@H](C)c2ccc(C(=O)O)cc2)CCOC3)c1
IC50 [1]: 1.9 nM

C[C@H](NC(=O)c1c(C(F)F)nn(C)c1Oc1cccc(C(F)(F)F)c1)c1ccc(C(=O)O)cc1 [PALUPIPRANT]
inhibition in vivo at 75 mg/kg (CT26): 39.9% | half-life [2]: > 2.42 h | remaining at 1 h, 10 µM [3]: 83.6% | inhibition at 20 µM (CYP2B6): 77% | inhibition at 20 µM (CYP2C9): 33% | inhibition at 20 µM (CYP2E1): 21% | microsomal CLint [4]: < 9.6 µL/min/mg | IC50 at 72 h [5]: > 100000 nM | IC50 [6]: 101 nM | inhibition at 20 µM (CYP1A2): 59% | microsomal CLint [7]: < 9.6 µL/min/mg | remaining at 1 h, 10 µM [8]: 95.7% | inhibition at 20 µM (CYP2D6): 65% | half-life [9]: > 2.42 h

CON(C)C(=O)c1ccc([C@H](C)NC(=O)c2c(Cc3ccc(F)cc3)sc3c2CCOC3)cc1
IC50 [1]: 187 nM

C[C@H](NC(=O)c1c(NC(=O)c2ccc(F)cc2)sc2c1CCOC2)c1ccc(C(=O)O)cc1
IC50 [1]: > 1000 nM

C[C@H](NC(=O)c1c(Cc2ccc(OC(F)(F)F)c(Cl)c2)sc2c1CCOC2)c1ccc(C(=O)O)cc1
IC50 [1]: 6.6 nM

O=C(O)c1cccc(CNC(=O)c2c(Cc3cccc(C(F)(F)F)c3)sc3c2CCOC3)c1
IC50 [1]: > 1000 nM
